Test results: US20050107616A1, “Alpha-ketoamide derivatives as cathepsin k inhibitors” (priority 2001, published 2005)

Tests used:
Format in all cases: biochemical
human cathepsin L = human cathepsin L (Homo sapiens, UniProt P07711); assay: Cathepsin L inhibition assay, fluorogenic substrate Cbz-Phe-Arg-AMC; conditions: Table 2; enzyme from human liver tissue, pH 5.5, 30° C., 5 μM substrate; read-out: hCat L Ki
Protocol: (§1) All assays for cathepsin K were carried out with human and rat recombinant enzyme. Assays for cathepsins S Et V were also carried out with human recombinant enzyme. Assays for human cathepsins B. H. and L were carried out with enzyme, purchased from Athens Research and Technology, Inc., prepared from human liver tissue. Standard assay conditions for the determination of kinetic constants used a fluorogenic peptide substrate, typically (5S,8S)-13-amino-5-benzyl-13-imino-3-methylene-N-(4methyl-2-oxo-2H-chromen-7-yl)-6-oxo-1-phenyl-2-oxa-4,7,12-triazatridecane-8-carboxamide (Cbz-Phe-Arg-AMC), and were determined in 100 mM sodium acetate at pH 5.5 containing 10 mM dithiothreitol and 120 mM sodium chloride. A stock substrate solution of Cbz-Phe-Arg-AMC was prepared at a concentration of 50 mM in dimethyl sulfoxide. This substrate was diluted into the assay for a final substrate concentration of 10 μM in the rat cathepsin K, human cathepsin K, and human cathepsin B assays; a final substrate concentration of 5 μM in the human cathepsin L assay; and a final substrate concentration of 2 μM in the human cathepsin V assay.
(§2) All assays contained 10% dimethyl sulfoxide. […] All assays were conducted at 30° C. Product fluorescence (excitation at 360 nm; emission at 440 nm, (except cathepsin H which used excitation at 340 nm; emission at 420 nm)) was monitored with a PerSeptive Biosystems Cytofluor II fluorescence plate reader. Product progress curves were generated over 2.3 h monitoring the formation of 7-amino-4-methylcoumarin product (or β-naphthalamide for cathepsin H).
(§3) Potential inhibitors were evaluated using the progress curve method. Assays were carried out in the presence of variable concentrations of test compound. Reactions were initiated by addition of buffered solutions of inhibitor and substrate to enzyme. Data analysis was conducted according to one of two procedures depending on the appearance of the progress curves in the presence of inhibitors. For those compounds whose progress curves were linear, the enzymatic activity (RATE) was plotted against the concentration of test compound, including inhibitor concentration of zero ([I]=0), and the IC50 determined from a fit of equation 1 to the data, RATE=Vmax/(1+([I]/IC50)) (1) where Vmax is the best fit estimate of the maximal enzymatic activity. Ki values were calculated from IC50 values using equation 2 assuming a competitive model. [formula]

human cathepsin V = human cathepsin V (Homo sapiens, UniProt O60911); assay: Cathepsin V inhibition assay, fluorogenic substrate Cbz-Phe-Arg-AMC; conditions: Table 2; human recombinant enzyme, pH 5.5, 30° C., 2 μM substrate; read-out: hCat V Ki
Sequence of human cathepsin V (O60911 114-334): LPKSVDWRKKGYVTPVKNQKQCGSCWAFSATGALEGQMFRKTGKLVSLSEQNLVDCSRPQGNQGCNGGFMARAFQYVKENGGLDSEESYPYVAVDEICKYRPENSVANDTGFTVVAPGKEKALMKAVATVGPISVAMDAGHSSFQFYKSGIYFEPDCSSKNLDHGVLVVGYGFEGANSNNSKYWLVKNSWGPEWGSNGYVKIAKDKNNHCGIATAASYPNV
Protocol: as §1, §2, §3

human cathepsin B = human cathepsin B (Homo sapiens, UniProt P07858); assay: Cathepsin B inhibition assay, fluorogenic substrate Cbz-Phe-Arg-AMC; conditions: Table 2; enzyme from human liver tissue, pH 5.5, 30° C., 10 μM substrate; read-out: hCat B Ki
Protocol: as §1, §2, §3

rat cathepsin K = target: T1, rat cathepsin K (Rattus norvegicus, UniProt O35186); assay: Cathepsin K inhibition assay, fluorogenic substrate Cbz-Phe-Arg-AMC, progress curve method; conditions: Table 2; rat recombinant enzyme, pH 5.5, 30° C., 10 μM substrate; read-out: rCat K Ki
T1 construct: The proform of cathepsin K was converted to mature cathepsin K by brief exposure to pH 4; made in house; host or cells: baculovirus; Trichoplusia ni High Five cells (virus raised in Sf-9)
T1 sequence (O35186 115-329): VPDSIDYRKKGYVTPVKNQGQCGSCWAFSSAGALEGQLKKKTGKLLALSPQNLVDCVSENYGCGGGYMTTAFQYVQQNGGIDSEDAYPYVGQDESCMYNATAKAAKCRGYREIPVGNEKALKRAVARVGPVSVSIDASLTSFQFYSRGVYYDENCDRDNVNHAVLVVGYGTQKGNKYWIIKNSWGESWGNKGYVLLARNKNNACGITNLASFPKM
Protocol: as §1, §2
Scale-Up and Fermentation: The method of O'Reilly et al. (1994) was used for baculovirus expression with the following details. Two liters of Spodoptera frugiperda (Sf-9) cells (ATCC) were grown in Grace's Supplemented medium (Life Technologies) supplemented with 2 g/L glucose, 10% a fetal bovine serum (HyClone) and 0.10% pluronic F-68 (Life Technologies). Cells were grown in a 6 L shake flask at 150 RPM at 28° C. for 24 h to a density of 10^6 cells/mL, and then infected at a multiplicity of infection (MOI) of 0.1. The cells continued to grow for 72 h post-infection, before the virus was harvested by centrifugation at 1400× g for 30 min. Virus was titered as described (Summers and Smith, 1987).
One and one-half liters of Trichoplusia ni (T. ni) High Five (TM) cells [JRH Biosciences, Woodland, Calif. (adapted to suspension and serum-free medium)] grown in Excell 405 (TM) medium (JRH Biosciences) with 50 ug/mL gentamicin (Life Technologies) were added to a 15 L stirred tank reactor (Quark Enterprises, Inc) at a density of ˜0.5×10^6 cells/mL The cells were grown for 24 h at 28° C., 50 RPM, and 50% dissolved oxygen. Cells were then infected at a density of ˜10^6 cells/mL with an MOI of 1 and grown for 48 h post-infection. Media were separated from cells at a rate of 1 L/min using the Centritech 100 (TM) continuous-flow centrifuge (DuPont) operating at 200× g.
Protein Purification: Media (human and rat) were filtered through a Whatman 3 filter, and then loaded onto a 25 mL Poros HS II (26 mm×47 mm) cation exchange column equilibrated in 25 mM sodium acetate at pH 5.5 (equilibration buffer). The column was washed until the absorbance reached the baseline value, and then the protein was eluted with a linear gradient from 0-2 M sodium chloride in the equilibration buffer. Column fractions were analyzed by SDS-PAGE, N-terminal sequencing, and mass spectrometry. Fractions containing the proform of cathepsin K were pooled and frozen at −80° C. The proform was concentrated in an Amicon Centriprep 10 and fractionated with a Superdex 75 column (26 mm×600 mm, Pharmacia) equilibrated in 400 mM sodium chloride, 25 mM sodium acetate at pH 5.5.
Cathepsin K Activation: The proform of cathepsin K was converted to mature cathepsin K by brief exposure to pH 4 in the presence of 5 mM L-cysteine. […]

human cathepsin H = human cathepsin H (Homo sapiens, UniProt P09668); assay: Cathepsin H inhibition assay, substrate L-Arg-β-naphthalamide; conditions: Table 2; enzyme from human liver tissue, pH 5.5, 30° C.; read-out: hCat H Ki
Sequence of human cathepsin H (P09668 116-335 limits assumed, other chains not shown): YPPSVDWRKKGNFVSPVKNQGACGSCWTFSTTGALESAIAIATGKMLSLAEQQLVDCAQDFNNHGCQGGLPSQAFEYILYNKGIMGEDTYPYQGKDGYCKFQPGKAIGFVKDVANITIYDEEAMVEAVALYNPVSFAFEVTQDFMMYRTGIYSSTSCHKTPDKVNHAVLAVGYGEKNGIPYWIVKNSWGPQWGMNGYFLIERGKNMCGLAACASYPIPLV
Protocol: as §1
A stock substrate solution of (2S)-2-amino-5-{[amino(imino)methyl]amino}-N-(2-naphthyl)pentanamide hydrochloride (L-Arg-β-naphthalamide.HCl) was prepared at a concentration of 10 mM in dimethyl sulfoxide. This substrate was diluted into the assay for a final substrate concentration of […] in the cathepsin H assay.
as §2, §3

Sequence of human cathepsin L (P07711 114-288 limits assumed): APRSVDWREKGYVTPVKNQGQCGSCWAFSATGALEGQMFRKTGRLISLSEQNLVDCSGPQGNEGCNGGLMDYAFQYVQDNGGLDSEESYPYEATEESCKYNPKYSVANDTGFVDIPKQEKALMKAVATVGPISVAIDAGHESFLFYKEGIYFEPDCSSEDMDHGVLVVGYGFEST
Sequence of human cathepsin L (P07711 292-333 limits assumed): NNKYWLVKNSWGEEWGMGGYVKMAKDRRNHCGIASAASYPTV

## CCCC[C@H](NC(=O)O[C@H](Cn1cnc(-c2ccc(C(F)(F)F)cc2)c1)C(C)(C)C)C(=O)C(=O)Nc1ccnn1C1CCC1 [Example 35, (1S)-2,2-dimethyl-1-({4-[4-(trifluoromethyl)phenyl]-1H-imidazol-1-yl}methyl)propyl(1S)-1-[[(1-cyclobutyl-1H-pyrazol-5-yl)amino](oxo)acetyl]pentylcarbamate]
Human cathepsin L
  Ki: 100 to 10000 nM
Human cathepsin V
  Ki: 1 to 100 nM
Human cathepsin B
  Ki: 100 to 10000 nM
Rat cathepsin K
  Ki: 1 to 100 nM
Human cathepsin H
  Ki: 0.1 to 10 µM

## CCCC[C@H](NC(=O)O[C@H](c1nnc(-c2ccc(C(F)(F)F)cc2)o1)C(C)(C)C)C(=O)C(=O)Nc1ccn[nH]1 [Example 38, (1S)-2,2-dimethyl-1-{5-[4-(trifluoromethyl)phenyl]-1,3,4-oxadiazol-2-yl}propyl(1S)-1-[oxo(1H-pyrazol-5-ylamino)acetyl]pentylcarbamate]
Human cathepsin L
  Ki: 1 to 100 nM
Human cathepsin V
  Ki: 1 to 100 nM
Human cathepsin B
  Ki: 1 to 100 nM
Rat cathepsin K
  Ki: 1 to 100 nM
Human cathepsin H
  Ki: 0.1 to 10 µM

## CCCC[C@H](NC(=O)O[C@H](Cn1ccc(-c2ccc(C(F)(F)F)cc2)n1)C(C)(C)C)C(=O)C(=O)Nc1ccn[nH]1 [Example 1]
Human cathepsin L
  Ki: 1 to 100 nM
Human cathepsin V
  Ki: 0.01 to 1 nM
Human cathepsin B
  Ki: 1 to 100 nM
Rat cathepsin K
  Ki: 0.01 to 1 nM
Human cathepsin H
  Ki: 0.1 to 10 µM

## CCCC[C@H](NC(=O)O[C@H](Cn1cnc(-c2ccc(C(F)(F)F)cc2)c1)C(C)(C)C)C(=O)C(=O)Nc1ccn[nH]1 [Example 7, (1S)-2,2-dimethyl-1-({4-[4-(trifluoromethyl)phenyl]-1H-imidazol-1-yl}methyl)propyl(1S)-1-[oxo(1H-pyrazol-5-ylamino)acetyl]pentylcarbamate]
Human cathepsin L
  Ki: 1 to 100 nM
Human cathepsin V
  Ki: 0.01 to 1 nM
Human cathepsin B
  Ki: 1 to 100 nM
Rat cathepsin K
  Ki: 0.01 to 1 nM
Human cathepsin H
  Ki: 0.1 to 10 µM

## CCCC[C@H](NC(=O)O[C@H](c1nnc(-c2ccc(C(F)(F)F)cc2)o1)C(C)(C)C)C(=O)C(=O)NN1CCOC1=O [Example 39, (1S)-2,2-dimethyl-1-{5-[4-(trifluoromethyl)phenyl]-1,3,4-oxadiazol-2-yl}propyl(1S)-1-{oxo[(2-oxo-1,3-oxazolidin-3-yl)amino]acetyl}pentylcarbamate]
Human cathepsin L
  Ki: 1 to 100 nM
Human cathepsin V
  Ki: 1 to 100 nM
Human cathepsin B
  Ki: 1 to 100 nM
Rat cathepsin K
  Ki: 1 to 100 nM
Human cathepsin H
  Ki: 0.1 to 10 µM

## CCCC[C@H](NC(=O)O[C@H](Cn1cnc2cc(Cl)c(Cl)cc21)C(C)(C)C)C(=O)C(=O)Nc1ccn[nH]1 [Example 37, (1S)-1-[(5,6-dichloro-1H-benzimidazol-1-yl)methyl]-2,2-dimethylpropyl(1S)-1-[oxo(1H-pyrazol-5-ylamino)acetyl]pentylcarbamate]
Human cathepsin L
  Ki: 0.01 to 1 nM
Human cathepsin V
  Ki: 0.01 to 1 nM
Human cathepsin B
  Ki: 1 to 100 nM
Rat cathepsin K
  Ki: 0.01 to 1 nM
Human cathepsin H
  Ki: 0.1 to 10 µM

## CCCC[C@H](NC(=O)O[C@H](Cc1nnc(-c2ccc(F)cc2)o1)C(C)(C)C)C(=O)C(=O)Nc1ccnn1C (stereo in doubt) [Example 22, (1R)-1-{[5-(4-fluorophenyl)-1,3,4-oxadiazol-2-yl]methyl}-2,2-dimethylpropyl(1S)-1-[[(1-methyl-1H-pyrazol-5-yl)amino](oxo)acetyl]pentyl carbamate]
Human cathepsin L
  Ki: 100 to 10000 nM
Human cathepsin V
  Ki: 100 to 10000 nM
Human cathepsin B
  Ki: 100 to 10000 nM
Rat cathepsin K
  Ki: 100 to 10000 nM
